In ChEMBL document CHEMBL2074467, “Transport characteristics of differently charged cephalosporin antibiotics in oocytes expressing the cloned intestinal peptide transporter PepT1 and in human intestinal Caco-2 cells” (J Pharmacol Exp Ther, 1996):
Blank lines part the entries; values can stand above or below the compound they belong to.

Legend:
Format in all cases: functional, cell-based
[1] = molecular target: T1, Solute carrier family 15 member 1 (Homo sapiens, UniProt P46059); experiment: TP_TRANSPORTER: inhibition of Cefadroxil uptake in Caco-2 cells
T1 sequence (P46059 whole entry): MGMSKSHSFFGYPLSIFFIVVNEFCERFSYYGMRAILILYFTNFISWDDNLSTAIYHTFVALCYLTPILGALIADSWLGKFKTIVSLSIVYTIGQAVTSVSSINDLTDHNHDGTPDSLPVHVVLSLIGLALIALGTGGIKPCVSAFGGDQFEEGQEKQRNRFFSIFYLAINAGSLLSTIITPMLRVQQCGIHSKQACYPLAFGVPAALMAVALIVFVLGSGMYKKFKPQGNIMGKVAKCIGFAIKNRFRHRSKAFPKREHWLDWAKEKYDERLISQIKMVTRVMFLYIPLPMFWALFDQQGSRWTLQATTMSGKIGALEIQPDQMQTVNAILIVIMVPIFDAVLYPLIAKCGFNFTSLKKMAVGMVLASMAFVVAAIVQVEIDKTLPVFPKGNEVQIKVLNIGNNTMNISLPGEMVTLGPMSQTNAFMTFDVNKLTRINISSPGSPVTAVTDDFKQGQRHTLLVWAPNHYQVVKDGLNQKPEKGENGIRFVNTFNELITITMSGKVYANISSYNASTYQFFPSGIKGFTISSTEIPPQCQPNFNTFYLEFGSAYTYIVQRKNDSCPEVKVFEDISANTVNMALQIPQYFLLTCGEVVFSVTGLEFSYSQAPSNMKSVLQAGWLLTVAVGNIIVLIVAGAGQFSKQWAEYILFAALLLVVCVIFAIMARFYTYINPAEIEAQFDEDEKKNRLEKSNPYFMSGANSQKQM

[2] = molecular target: T2, Solute carrier family 15 member 1 (Homo sapiens) (UniProt P46059); experiment: TP_TRANSPORTER: inhibition of Cefadroxil uptake (apical pH 6.5, Cefadroxil: 1000 uM, Amoxicillin: 10000 uM) in Caco-2 cells; set-up: scale not given: the % may be the effect or the level left
T2 sequence (whole entry): T1 sequence (P46059 whole entry)

[3] = molecular target: T2, Solute carrier family 15 member 1 (Homo sapiens); experiment: TP_TRANSPORTER: inhibition of Cefadroxil uptake (apical pH 5.5, Cefadroxil: 1000 uM, Amoxicillin: 10000 uM) in Caco-2 cells; set-up: scale not given: the % may be the effect or the level left
[4] = molecular target: T1, Solute carrier family 15 member 1; experiment: TP_TRANSPORTER: inhibition of Cefixim uptake in Caco-2 cells
[5] = molecular target: T2, Solute carrier family 15 member 1 (Homo sapiens); experiment: TP_TRANSPORTER: inhibition of Cefadroxil uptake (apical pH 6.5, Cefadroxil: 1000 uM, Loracarbef: 10000 uM) in Caco-2 cells; set-up: scale not given: the % may be the effect or the level left
[6] = molecular target: T2, Solute carrier family 15 member 1 (Homo sapiens); experiment: TP_TRANSPORTER: inhibition of Cefadroxil uptake (apical pH 5.5, Cefadroxil: 1000 uM, Loracarbef: 10000 uM) in Caco-2 cells; set-up: scale not given: the % may be the effect or the level left

Ki [1]: 1310 µM
Structure (SMILES): C=CC1=C(C(=O)O)N2C(=O)[C@@H](NC(=O)/C(=N\OCC(=O)O)c3csc(N)n3)[C@H]2SC1 [CEFIXIME]

Activity [2]: 62.9% | Activity [3]: 85.7%
Structure (SMILES): CC1(C)S[C@@H]2[C@H](NC(=O)[C@H](N)c3ccc(O)cc3)C(=O)N2[C@H]1C(=O)O

Ki [4]: 1450 µM
Structure (SMILES): CC1=C(C(=O)O)N2C(=O)[C@@H](NC(=O)[C@H](N)c3ccc(O)cc3)[C@H]2SC1 [CEFADROXIL]

Activity [5]: 60.3% | Activity [6]: 72.6%
Structure (SMILES): N[C@@H](C(=O)N[C@@H]1C(=O)N2C(C(=O)O)=C(Cl)CC[C@H]12)c1ccccc1
